One test deals with MDCK cells. The experiment in a line: Inhibition of uptake of 5-FU in MDCK cells (Test Example 4). The format is cell-based. The conditions noted are these: Canis lupus familiaris, 3H-5FU uptake versus control, harvest time (1, 3 or 5 hours) not given; for inhibition at 100 µM: 10⁻⁴ M; for inhibition at 10 µM: 10⁻⁵ M; for inhibition at 1 µM: 10⁻⁶ M. Here is the method:
In the assay of inhibitory activity against the 5-FU uptake of MDCK cells, the anticancer adjuvant activity of the test compound can be estimated based on the inhibitory effect on the uptake of a known anticancer drug.
The inhibitory effect of the compound of this invention on the uptake of 5-FU in MDCK cells was investigated. MDCK cells were seeded on a 24-well culture plate. When the cells became confluent, the test compound (10⁻⁶ - 10⁻⁴ M) and 3H-5FU ([…]) were simultaneously added to the medium and 1, 3 and 5 hours later, cells were harvested to determine the amount of 3H-5FU taken up with a liquid scintillation counter. The percent inhibition to control was calculated.

Test [1] deals with Colon 26 tumor cells. The experiment in a line: Colon 26 percent tumor inhibition, alone and combined with 5-FU derivatives (Test Example 3). The format is in vivo, BALB/c mice. The settings on record: for % Inhibition, Combination: test compound 10 mg/kg orally once daily concurrently with 5-FU derivatives (90 mg/kg total); for % Inhibition, Single drug: test compound 10 mg/kg orally once daily, 5-FU derivatives 30 mg/kg each (90 mg/kg total) orally. Here is the method:
The additive effect of 5-FU derivative and the compound of this invention was tested in terms of percent tumor inhibition. Colon 26 tumor cells were transplanted subcutaneously to groups of 8 BALB/c mice and the treatment was instituted when the tumor volume amounted to about 50-100 mm³. Each of the test com pound was suspended in 0.5% methylcellulose and admin istered orally in a dose of 10 mg/kg once daily for 14 days in (1) and for 21 days in (2) and (3). As 5-FU derivatives Mifurol™, Furtulon™ and Sunfural™ were used, and all the drugs were administered orally in a dose of 30mg/kg, or 90 mg/kg as total dose of three drugs. The combination group received these 5-FU derivatives concurrently with the test drug. The single drug group received each test compound alone orally.

Test [2] deals with Colon 26 tumor cells. The experiment in a line: Colon 26 life-prolonging effect / survival (Test Example 5). The format is in vivo, BALB/c mice. The conditions noted are these: 10 mg/kg orally once daily; for life-prolonging effect: Test (2): groups of six, eighty percent of control group died on day 63, Fig. 4. As for the experimental part:
Furthermore, in the assay of growth inhibitory activity against Colon 26, the life-prolonging effect can be evaluated from the mortality of animals during a period of 4 to 6 weeks after administration.
• (1) Colon 26 tumor cells were transplanted subcutane ously in groups of six BALB/c mice and the treatment was instituted when the tumor volume amounted to about 100 - 200 mm³. The test drug suspended in 0.5% methyl cellulose was administered orally in a dose of 10 mg/kg once daily during the test period. All animals in the control group (no test drug was contained at all) died on day 34 and all animals given 5-FU derivative died on day 40, whereas none of the animals given the compound of this invention (compound No. 169) died even after day 40. The life-prolonging effect of the compound of this invention is clear. • (2) As in the above (1), Colon 26 tumor cells were transplanted subcutaneously in groups of six BALB/c mice and treatment was instituted when the tumor volume amounted to about 100-200 mm³. The test drug suspended in 0.5% methylcellulose was administered orally in a dose of 10 mg/kg once daily during the test period.
The open circle stands for control, the open square for the F-5U derivative group and the closed square for the group given the compound of this invention. The survival rate (%) is plotted on the vertical axis and the number of days after drug administration on the horizontal axis.
The open circle stands for the control group, the open square for Compound No. 175 group, the closed circle for Compound No. 210 group, the open triangle for Compound No. 213 group and the closed square for Compound 219 group. The survival rate (%) is plotted on the vertical axis and the number of days after drug administration on the horizontal axis.

The nature of test [3]: Anticancer effect in unspecified in vitro test systems (Test Example 6). The settings on record: in vitro test systems which the inventor used, not described.

What is called inhibition is the drop in the measured response relative to a control, in per cent. Consider `O=C(Nc1nc(NC(=O)c2cccnc2)nc(-c2ccccc2)n1)c1cccnc1` [Compound No. 102, 2,4-Dinicotinoylamino-6-phenyl-1,3,5-triazine], for which, in the test on MDCK cells, at 100 µM the inhibition was 62%, at 10 µM the inhibition was 59% and the inhibition at 1 µM is 86%.
In the test on MDCK cells, `Nc1nc(NC(=O)c2ccccc2)nc(-c2ccccc2)n1` [Compound No. 103, 2-Amino-4-benzoylamino-6-phenyl-1,3,5-triazine] came in with an inhibition at 100 µM of 50% and an inhibition at 10 µM of 58%.
`O=C(Nc1nc(NC(=O)c2ccccc2)nc(-c2ccccc2)n1)c1ccccc1` [Compound No. 104, 2,4-Dibenzoylamino-6-phenyl-1,3,5-triazine]: in the test with MDCK cells, the inhibition at 100 µM was determined as 44%, at 10 µM the inhibition was 50% and 1 µM produced 60% inhibition.
The like results for `Nc1nc(N)nc(-c2ccc(Cl)c(Cl)c2)n1` [Compound No. 156, 2,4-Diamino-6-(3,4-dichlorophenyl)-1,3,5-triazine] were, in that order, 56%, 73% and 85%.
On to `Nc1nc(N)nc(-c2cccc(Cl)c2)n1` [Compound No. 159, 2,4-Diamino-6-(3-chlorophenyl)-1,3,5-triazine], for which, in the test with Colon 26 tumor cells [1] (Test (1): 14 days), the “% Inhibition, Combination” value is 50.9% and the “% Inhibition, Single drug” value is reported as 2.0%.
On to `Nc1nc(N)nc(-c2cc(Cl)ccc2Cl)n1` [Compound No. 169, 2,4-Diamino-6-(2,5-dichlorophenyl)-1,3,5-triazine], for which the “% Inhibition, Combination” value with Colon 26 tumor cells [1] (Test (1): 14 days) is 54.6%; in the test on Colon 26 tumor cells [1] (Test (2): 21 days), 84.1%; in the test on Colon 26 tumor cells [1] (Test (3): 21 days) it was 49.9%. Also, the “% Inhibition, Single drug” value was 18.0% in the test with Colon 26 tumor cells [1] (Test (1): 14 days), 11.6% with Colon 26 tumor cells [1] (Test (2): 21 days) and 10.7% with Colon 26 tumor cells [1] (Test (3): 21 days). In the test with Colon 26 tumor cells [2] (Test (1): groups of six, control group all died on day 34, Fig. 3), the “survival: day on which the animals died” value was above 40 days.
Take `Nc1nc(N)nc(-c2ccc(Cl)cc2Br)n1` [Compound No. 210, 2,4-Diamino-6-(2-bromo-4-chlorophenyl)-1,3,5-triazine]: the “% Inhibition, Combination” value in the test with Colon 26 tumor cells [1] (Test (2): 21 days) is reported as 86.0%. For the same compound, the life-prolonging effect entry in the test on Colon 26 tumor cells [2] is on record as “definite life-prolonging effect”.
For `Nc1nc(N)nc(-c2cc(Br)ccc2Cl)n1` [Compound No. 213, 2,4-Diamino-6-(5-bromo-2-chlorophenyl)-1,3,5-triazine] the same measures were 70.4% and “definite life-prolonging effect”.
In the case of `COCCOc1ccc(Cl)cc1-c1nc(N)nc(N)n1` [Compound No. 221, 2,4-Diamino-6-[5-chloro-2-(2-methoxyethoxy)phenyl]-1,3,5-triazine], in the test with Colon 26 tumor cells [1] (Test (3): 21 days), the “% Inhibition, Combination” value amounted to 76.5% and the “% Inhibition, Single drug” value stood at 18.1%.
Take `COc1ccc(-c2nc(N)nc(N)n2)cc1OC` [Compound No. 259, 2,4-Diamino-6-(3,4-dimethoxyphenyl)-1,3,5-triazine]: in the test on MDCK cells, at 100 µM the inhibition was 62%, the inhibition at 10 µM was 66% and the inhibition at 1 µM was found to be 77%. In addition, in the test with Colon 26 tumor cells [1] (Test (1): 14 days), the “% Inhibition, Combination” value was 45.6% and the “% Inhibition, Single drug” value was found to be 9.2%.
As to `Nc1nc(NC(=O)c2cccnc2)nc(-c2cc(Cl)ccc2Cl)n1` [Compound No. 262, 2-Amino-4-nicotinoylamino-6-(2,5-dichlorophenyl)-1,3,5-triazine], in the test on MDCK cells, 100 µM produced 46% inhibition and the inhibition at 10 µM is 58%. For the same compound, in the test on Colon 26 tumor cells [1] (Test (3): 21 days), the “% Inhibition, Combination” value is 48.8% and the “% Inhibition, Single drug” value was 19.2%.
As for `Nc1nc(NC(=O)c2cccnc2)nc(-c2ccc(Cl)c(Cl)c2)n1` [Compound No. 263, 2-Amino-4-nicotinoylamino-6-(3,4-dichlorophenyl)-1,3,5-triazine], in the test with Colon 26 tumor cells [1] (Test (1): 14 days), the “% Inhibition, Combination” value is reported as 47.9% and the “% Inhibition, Single drug” value was 7.0%. In the test on Colon 26 tumor cells [1] (Test (3): 21 days), the “% Inhibition, Combination” value is 52.0% and the “% Inhibition, Single drug” value is recorded as 8.9%.
In the test with MDCK cells, `COc1ccc(-c2nc(N)nc(NC(=O)c3cccnc3)n2)cc1OC` [Compound No. 264, 2-Amino-4-nicotinoylamino-6-(3,4-dimethoxyphenyl)-1,3,5-triazine] displayed an inhibition at 100 µM of 56%, an inhibition at 10 µM of 62% and an inhibition at 1 µM of 89%.
For `Nc1nc(N)nc(-c2ccc(OCc3ccccc3)cc2)n1` [Compound No. 345, 2,4-Diamino-6-(4-benzyloxyphenyl)-1,3,5-triazine] the same measures were 70%, 63% and 63%.
For `CC(=O)c1cccc(-c2nc(N)nc(N)n2)c1` [Compound No. 347, 2,4-Diamino-6-(3-acetylphenyl)-1,3,5-triazine], in the test on MDCK cells, the inhibition at 100 µM is 49% and testing at 10 µM gave an inhibition of 61%.
For `Nc1cccc(-c2nc(N)nc(N)n2)c1` [Compound No. 352, 2,4-Diamino-6-(3-aminophenyl)-1,3,5-triazine] the same measures were 64% and 69%.
In the test on MDCK cells, `Nc1nc(N)nc(-c2ccccc2NCc2ccccc2)n1` [Compound No. 356, 2,4-Diamino-6-(2-benzylaminophenyl)-1,3,5-triazine] showed an inhibition at 100 µM of 51%, an inhibition at 10 µM of 73% and an inhibition at 1 µM of 91%.
Consider `Nc1nc(N)nc(-c2ccc(Br)c(Br)c2)n1` [Compound No. 405, 2,4-Diamino-6-(3,4-dibromophenyl)-1,3,5-triazine], for which, in the test with MDCK cells, at 100 µM the inhibition was 62% and the inhibition at 10 µM was 59%.
For the compound `Nc1nc(N)nc(-c2ccccc2)n1` [compound 100, 2,4-Diamino-6-phenyl-1,3,5-triazine], the “anticancer effect in vitro” value in test [3] is recorded as “strong anticancer effect”.
Same read-out and setting: in the case of `CCONc1nc(N)nc(-c2cc(Cl)ccc2Cl)n1` [compound 183, 2-Amino-4-ethoxyamino-6-(2,5-dichlorophenyl)-1,3,5-triazine] it was “strong anticancer effect”; in that of `Nc1nc(N)nc(-c2cc(Br)ccc2F)n1` [compound 215, 2,4-Diamino-6-(5-bromo-2-fluorophenyl)-1,3,5-triazine], “strong anticancer effect”.
The same measure, in the same setting: next, `COc1ccccc1-c1nc(N)nc(N)n1` [compound 255, 2,4-Diamino-6-(2-methoxyphenyl)-1,3,5-triazine]: “strong anticancer effect”; `Nc1nc(N)nc(-c2cc([N+](=O)[O-])ccc2Cl)n1` [compound 374, 2,4-Diamino-6-(2-chloro-5-nitrophenyl)-1,3,5-triazine]: “strong anticancer effect”; `Cc1ccc(Cl)cc1-c1nc(N)nc(N)n1` [compound 380, 2,4-Diamino-6-(5-chloro-2-methylphenyl)-1,3,5-triazine]: “strong anticancer effect”.
The same measure, in the same setting: next, `Nc1nc(N)[n+]([O-])c(-c2cc(Cl)ccc2Cl)n1` [compound 1001, 2,4-Diamino-6-(2,5-dichlorophenyl)-1,3,5-triazine N-oxide]: “strong anticancer effect”.

(Values after EP0563386A1, “ANTICANCER COMPOSITION AND COMPOUND” (NIPPON SHINYAKU COMPANY, LIMITED, priority 1990, dated 1992).)
